Legend:
[1] = Absorbance of aqueous iron complex solution irradiated with ultraviolet rays (253.7 nm); type: physicochemical; conditions: aqueous solution of the Fe complex of the named ligand, Fe 100 μM, pH 5.0, ultraviolet 253.7 nm, 10-mm cell
Experimental: For comparison, absorbance measurement was performed using an aqueous solution of each of an iron complex of ethylenediaminetetraacetic acid (EDTA) (hereinafter, referred to as “Fe-EDTA”), an iron complex of diethylenetriamine-N,N,N',N'',N''-pentaacetic acid (DTPA) (hereinafter, referred to as “Fe-DTPA”), an iron complex of hydroxybenzylethylenediamine (HBED) (hereinafter, referred to as “Fe-HBED”), an iron complex of N,N'-ethylene-bis([…]) (hereinafter, referred to as “Fe-EDDHA”), an iron complex of citric acid, and an iron complex (hereinafter, referred to as “Fe-PDMA”) of a compound represented by the following formula (hereinafter, referred to as “PDMA”). […] Subsequently, a deionized water was added to fill up to 220 mL. This aqueous solution was left to stand at a temperature of 25° C. for 1 hour to yield an aqueous solution of an iron complex having an Fe concentration of 100 μM (5.6 ppm). Thereafter, the absorbance of this aqueous complex solution was measured. […] Subsequently, a deionized water was added to fill up to 220 mL. […] Thereafter, the absorbance of this aqueous complex solution was measured in the same manner as described above (see Table 1). […] Subsequently, about 220 mL of a deionized water was added to the resultant mixture to yield an aqueous complex solution having an Fe concentration of 100 μM (5.6 ppm).

[2] = system: corn variety "Launcher 82"; experiment: Plant cultivation test (1): hydroponic cultivation of corn, leaf color (SPAD value); type: in vivo; conditions: 3 mL iron material with Fe 100 μM, 3rd day after administration, average of two pots
Experimental: Seeds of corn variety “Launcher 82” were placed on a paper towel wetted with tap water. 8 days after germination, the seedlings were immersed in 45 mL of a hydroponic nutrient solution (a liquid based on the formulation in the Horticultural Experiment Station). 2 days after that, 3 mL of iron materials including various aqueous complex solutions were administered to the seedlings. Then, on the 3rd day after the administration of the iron materials, the leaf color (SPAD value) of corn was measured. This hydroponic cultivation was performed in two pots, and the average value of the SPAD values was calculated. For comparison, an experiment of administering only iron sulfate and an experiment of administering no iron material were also performed.

| Absorbance [1] | Molecule | SPAD value Average [2] |
| --- | --- | --- |
| 0.193 | O=C(O)[C@@H](O)CCN1CCC[C@H]1C(=O)O [Compound V2] |  |
| 0.190 | N[C@@H](CCN1CCC[C@H]1C(=O)O)C(=O)O [Compound V3] |  |
| 0.144 | CC(=O)N[C@@H](CCN1CCC[C@H]1C(=O)O)C(=O)O [Compound V4] |  |
| 0.350 | O=C(CO)N[C@@H](CCN1CCC[C@H]1C(=O)O)C(=O)O [Compound V5] |  |
| 0.378 | O=C(O)CN[C@@H](CCN1CCC[C@H]1C(=O)O)C(=O)O [Compound V6] |  |
| 0.354 | CN(CCC(=O)O)[C@@H](CCN1CCC[C@H]1C(=O)O)C(=O)O [Compound V7] |  |
| 0.195 | N[C@@H](CCN1CC[C@H]1C(=O)O)C(=O)O [Compound V8] |  |
| 0.332 | O=C(O)[C@@H](O)CCN1CC[C@H]1C(=O)O [Compound V9] |  |
|  | O=S(=O)([O-])[O-].[Fe+2] [Fe only, iron sulfate] | 9.5 |
| 1.452 | O=C([O-])CN(CCN(CC(=O)[O-])CC(=O)[O-])CC(=O)[O-].[Fe+3] [Fe-EDTA, iron complex of ethylenediaminetetraacetic acid] |  |
| 0.644 | O=C(O)C(O)CCN[C@@H](CCN1CCC[C@H]1C(=O)O)C(=O)O (stereo partly shown) [Fe-PDMA] |  |
| 1.073 | iron complex of diethylenetriamine-N,N,N′,N″,N″-pentaacetic acid [Fe-DTPA] |  |
| 0.914 | iron complex of hydroxybenzylethylenediamine [Fe-HBED] |  |
